Data on eight molecules can be found in patent US11673897B2, “Compounds for the treatment of kinase-dependent disorders” (Exelixis, Inc., priority 2018, dated 2023).

What all share (type): cell-based
The target of test [1] is Mer (Homo sapiens (Human), UniProt Q12866). The test is described as follows: Mer autophosphorylation ELISA in transient transfected 293A cells. The conditions noted are these: cellular, MERTK-transfected 293A cells, phospho-Mer ELISA. As to the method:
293A cells (Thermo Fisher #R70507) were seeded at 1.5×10^6 cells/well onto 100 mm dish (Greiner #664169), in DMEM (Thermo Fisher #11995-040) containing 10% FBS (Thermo Fisher #26140-079), 1% MEM NEAA (Thermo Fisher #11140-050), 1% GlutaMax (Thermo Fisher #35050-061), and 1% Penicillin Streptomycin (Thermo Fisher #15140-122). 293A cells were incubated at 37° C., 5% CO2 for 24 h and then transfected with 6 μg MERTK DNA (Genecopoeia #EX-Z8208-M02) using TransIT LT1 transfection reagent (Mirus-Bio #MIR2305). After 24 h incubation, the transfected 293A cells were seeded at 1×10^5 cells/well onto 96-well plates (Corning #3904) in DMEM growth medium overnight. Test compounds were serially diluted to produce an 8-point dose curve in fresh serum-free medium to a final concentration of 0.3% DMSO (vehicle) and added to the cells and incubated for 1 h. Cells were then immediately lysed with 150 μL of cold 1× lysis buffer [20 mM Tris, 137 mM sodium chloride, 2 mM EDTA, 10% glycerol, 1% NP-40 alternative, 1 mM activated sodium orthovanadate, 1 mM PefaBloc SC (Sigma-Aldrich #11429868001), protease/phosphatase inhibitor tablet (Thermo Fisher #A32959)]. Lysates were clarified by centrifugation and 50 μL/well added into the human phospho-Mer DuoSet IC ELISA (R&D Systems #DYC2579-2). Assay was performed according to manufacturer's instructions and sample phospho-Mer concentrations were extrapolated using human phospho-Mer control (R&D Systems #841793) as a standard. Positive control wells (100% activity) contained DMSO-treated cell lysates. Negative control wells (0% activity) contained reference inhibitor-treated cell lysates. IC50 values were calculated by nonlinear regression analysis using a 4-parameter logistic curve fit in ActivityBase XE (IDBS).
Background: ELISA stands for enzyme-linked immunosorbent assay.

Test [2] has as its target AXL (Homo sapiens (Human), UniProt P30530). Kind of test: AXL autophosphorylation ELISA in A-172 cells. Particulars: cellular, Gas6-stimulated, phospho-AXL ELISA. An outline of the steps: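 A-172 glioblastoma cells, serum-starved 24 h, took compounds for 1 h (8-point curve, 0.3% DMSO) before 15 min stimulation with 1 μg/mL recombinant human Gas6. Lysate phospho-AXL measured by ELISA against a phospho-AXL standard, normalized to DMSO (100%) and reference inhibitor (0%); IC50 from 4-parameter logistic fit.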

The target of test [3] is KDR (Homo sapiens (Human), UniProt P35968). The test is described as follows: KDR autophosphorylation ELISA in HUVEC cells. Particulars: cellular, VEGF165-stimulated, phospho-KDR ELISA. Put shortly: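 Read-out: phospho-KDR ELISA on cell lysates, quantified against a phospho-KDR standard, normalised to VEGF-stimulated DMSO (100%) and unstimulated (0%) wells, IC50 by 4-parameter fit. Cells were 24 h serum-starved HUVEC given compound for 1 h, then 100 ng/mL VEGF165 for 5 min.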
Sequence of KDR (P35968 20-1356): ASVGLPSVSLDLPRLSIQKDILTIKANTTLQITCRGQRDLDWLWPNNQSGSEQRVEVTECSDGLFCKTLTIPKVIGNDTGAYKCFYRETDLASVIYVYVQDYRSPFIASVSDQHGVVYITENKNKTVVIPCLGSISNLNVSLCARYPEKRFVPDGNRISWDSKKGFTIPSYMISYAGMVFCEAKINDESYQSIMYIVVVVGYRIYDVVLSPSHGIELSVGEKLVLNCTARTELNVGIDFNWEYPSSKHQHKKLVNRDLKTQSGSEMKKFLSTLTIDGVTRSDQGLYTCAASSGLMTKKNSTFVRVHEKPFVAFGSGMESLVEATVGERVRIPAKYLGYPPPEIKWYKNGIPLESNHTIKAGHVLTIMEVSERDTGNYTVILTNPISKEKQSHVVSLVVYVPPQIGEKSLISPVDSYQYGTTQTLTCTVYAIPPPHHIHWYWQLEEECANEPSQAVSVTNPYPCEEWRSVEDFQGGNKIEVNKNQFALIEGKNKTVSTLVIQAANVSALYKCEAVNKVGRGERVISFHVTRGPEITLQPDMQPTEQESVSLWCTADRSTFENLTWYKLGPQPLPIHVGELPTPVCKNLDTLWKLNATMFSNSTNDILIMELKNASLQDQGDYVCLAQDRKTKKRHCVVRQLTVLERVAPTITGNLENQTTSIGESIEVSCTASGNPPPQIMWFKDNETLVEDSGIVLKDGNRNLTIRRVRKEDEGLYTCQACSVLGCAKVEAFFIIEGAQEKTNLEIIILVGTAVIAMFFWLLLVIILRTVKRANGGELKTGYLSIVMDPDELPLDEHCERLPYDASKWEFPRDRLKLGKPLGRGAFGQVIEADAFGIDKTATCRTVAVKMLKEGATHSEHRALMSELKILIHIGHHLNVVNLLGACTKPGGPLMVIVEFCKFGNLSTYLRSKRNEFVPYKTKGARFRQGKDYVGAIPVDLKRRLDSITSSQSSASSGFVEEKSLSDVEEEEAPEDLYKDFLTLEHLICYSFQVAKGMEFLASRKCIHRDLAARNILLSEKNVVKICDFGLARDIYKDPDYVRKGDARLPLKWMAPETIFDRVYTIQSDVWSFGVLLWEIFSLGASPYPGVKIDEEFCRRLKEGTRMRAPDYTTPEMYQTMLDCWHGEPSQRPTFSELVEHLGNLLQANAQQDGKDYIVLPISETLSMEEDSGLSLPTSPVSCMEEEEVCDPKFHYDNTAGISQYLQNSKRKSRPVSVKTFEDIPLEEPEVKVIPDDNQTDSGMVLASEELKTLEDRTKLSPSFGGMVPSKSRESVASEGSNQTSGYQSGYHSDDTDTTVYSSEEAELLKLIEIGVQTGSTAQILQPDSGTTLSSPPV

In test [4] the target is Met (Homo sapiens (Human), UniProt P08581). The test is described as follows: Met autophosphorylation ELISA in PC-3 cells. Particulars: cellular, HGF-stimulated, phospho-Met ELISA, read-out: c-Met IC50. Put shortly:
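PC-3 cells serum-starved 3 h were treated 1 h with an 8-point compound series (0.3% DMSO), then stimulated 10 min with 100 ng/mL human HGF. Phospho-Met (panTyr) in lysates was measured by sandwich ELISA against DMSO (100%) and reference-inhibitor (0%) controls, and IC50 came from a 4-parameter logistic fit.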

Sequence of Mer (Q12866 21-999): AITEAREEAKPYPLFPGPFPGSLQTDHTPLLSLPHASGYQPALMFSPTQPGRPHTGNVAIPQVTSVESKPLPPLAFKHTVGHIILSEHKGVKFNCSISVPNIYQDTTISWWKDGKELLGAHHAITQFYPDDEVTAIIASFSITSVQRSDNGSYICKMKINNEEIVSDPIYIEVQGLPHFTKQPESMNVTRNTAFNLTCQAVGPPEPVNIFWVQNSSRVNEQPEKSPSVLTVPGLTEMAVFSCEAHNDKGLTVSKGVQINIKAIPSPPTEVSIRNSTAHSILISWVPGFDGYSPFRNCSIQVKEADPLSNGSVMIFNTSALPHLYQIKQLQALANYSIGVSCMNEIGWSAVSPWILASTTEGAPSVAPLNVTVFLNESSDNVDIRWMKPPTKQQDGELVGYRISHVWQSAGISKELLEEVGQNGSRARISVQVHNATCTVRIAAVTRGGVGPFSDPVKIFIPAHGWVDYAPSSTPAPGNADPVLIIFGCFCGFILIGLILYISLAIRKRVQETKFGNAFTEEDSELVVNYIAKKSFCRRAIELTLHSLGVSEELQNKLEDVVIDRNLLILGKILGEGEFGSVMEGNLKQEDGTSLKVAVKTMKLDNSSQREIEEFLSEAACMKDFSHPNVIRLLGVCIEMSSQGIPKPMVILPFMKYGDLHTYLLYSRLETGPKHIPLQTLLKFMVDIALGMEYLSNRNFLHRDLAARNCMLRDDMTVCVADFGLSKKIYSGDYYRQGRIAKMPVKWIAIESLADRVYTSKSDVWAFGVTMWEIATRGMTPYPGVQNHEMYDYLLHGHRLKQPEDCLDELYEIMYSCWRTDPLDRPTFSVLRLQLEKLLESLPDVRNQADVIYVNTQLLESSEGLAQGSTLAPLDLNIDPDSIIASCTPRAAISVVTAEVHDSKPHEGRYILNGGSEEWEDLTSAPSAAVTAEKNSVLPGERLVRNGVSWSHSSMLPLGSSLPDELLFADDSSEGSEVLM
Sequence of Met (P08581 25-1390): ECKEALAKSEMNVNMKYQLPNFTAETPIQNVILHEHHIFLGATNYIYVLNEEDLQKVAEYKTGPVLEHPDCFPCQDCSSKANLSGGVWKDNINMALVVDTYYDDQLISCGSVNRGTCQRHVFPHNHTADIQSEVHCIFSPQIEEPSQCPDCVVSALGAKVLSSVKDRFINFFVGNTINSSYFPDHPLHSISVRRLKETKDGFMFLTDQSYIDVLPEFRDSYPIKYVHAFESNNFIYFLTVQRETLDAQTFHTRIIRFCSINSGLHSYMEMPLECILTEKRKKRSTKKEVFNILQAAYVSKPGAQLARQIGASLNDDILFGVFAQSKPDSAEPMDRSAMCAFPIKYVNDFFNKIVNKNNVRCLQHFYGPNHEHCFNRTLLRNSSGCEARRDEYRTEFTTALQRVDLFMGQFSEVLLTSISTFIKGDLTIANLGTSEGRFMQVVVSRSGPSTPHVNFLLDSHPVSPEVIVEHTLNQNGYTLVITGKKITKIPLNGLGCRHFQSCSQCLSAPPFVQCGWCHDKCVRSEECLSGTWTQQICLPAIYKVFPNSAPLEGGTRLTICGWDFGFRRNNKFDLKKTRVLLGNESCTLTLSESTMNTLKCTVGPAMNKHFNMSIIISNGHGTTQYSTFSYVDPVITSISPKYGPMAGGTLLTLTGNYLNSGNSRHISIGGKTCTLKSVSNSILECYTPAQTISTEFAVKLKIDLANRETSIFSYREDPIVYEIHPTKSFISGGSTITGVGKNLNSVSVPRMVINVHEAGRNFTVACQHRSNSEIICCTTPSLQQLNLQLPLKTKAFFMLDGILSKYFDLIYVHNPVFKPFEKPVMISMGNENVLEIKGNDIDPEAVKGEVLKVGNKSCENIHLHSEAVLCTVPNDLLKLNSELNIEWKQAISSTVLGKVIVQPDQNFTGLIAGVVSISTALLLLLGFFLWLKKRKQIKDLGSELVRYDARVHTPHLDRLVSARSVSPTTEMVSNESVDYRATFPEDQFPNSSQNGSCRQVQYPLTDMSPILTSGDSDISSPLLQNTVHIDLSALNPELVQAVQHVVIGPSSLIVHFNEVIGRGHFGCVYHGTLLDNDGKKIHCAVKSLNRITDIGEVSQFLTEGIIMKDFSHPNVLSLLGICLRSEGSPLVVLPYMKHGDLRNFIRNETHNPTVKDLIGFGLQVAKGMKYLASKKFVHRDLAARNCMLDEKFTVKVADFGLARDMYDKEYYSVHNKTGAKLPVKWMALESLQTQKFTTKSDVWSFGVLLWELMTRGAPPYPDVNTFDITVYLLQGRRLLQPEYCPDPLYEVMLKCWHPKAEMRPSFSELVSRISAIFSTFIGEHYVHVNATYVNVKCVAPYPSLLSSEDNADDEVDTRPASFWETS
Sequence of AXL (P30530 26-894): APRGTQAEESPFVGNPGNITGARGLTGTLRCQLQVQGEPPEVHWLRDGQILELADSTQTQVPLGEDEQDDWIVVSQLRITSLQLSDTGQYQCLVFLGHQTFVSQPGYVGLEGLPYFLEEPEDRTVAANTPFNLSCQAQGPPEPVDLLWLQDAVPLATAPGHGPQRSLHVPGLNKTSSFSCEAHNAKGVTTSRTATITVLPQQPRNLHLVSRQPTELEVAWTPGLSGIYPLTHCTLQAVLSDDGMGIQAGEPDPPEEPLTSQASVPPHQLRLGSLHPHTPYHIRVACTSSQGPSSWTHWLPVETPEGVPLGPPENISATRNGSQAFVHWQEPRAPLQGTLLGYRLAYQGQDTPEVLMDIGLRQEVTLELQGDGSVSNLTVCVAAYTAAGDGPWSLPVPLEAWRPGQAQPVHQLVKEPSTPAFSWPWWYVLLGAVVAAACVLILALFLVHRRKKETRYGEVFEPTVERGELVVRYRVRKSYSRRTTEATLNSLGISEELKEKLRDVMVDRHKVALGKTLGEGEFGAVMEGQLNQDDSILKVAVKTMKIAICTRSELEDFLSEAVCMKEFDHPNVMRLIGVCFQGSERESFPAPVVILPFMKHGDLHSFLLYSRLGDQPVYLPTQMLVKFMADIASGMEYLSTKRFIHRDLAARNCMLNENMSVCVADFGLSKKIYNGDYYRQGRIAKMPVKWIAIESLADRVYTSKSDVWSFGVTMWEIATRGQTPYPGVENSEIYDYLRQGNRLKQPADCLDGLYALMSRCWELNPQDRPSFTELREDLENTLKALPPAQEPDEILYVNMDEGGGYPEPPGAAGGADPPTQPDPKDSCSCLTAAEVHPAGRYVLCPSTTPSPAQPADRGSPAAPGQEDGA

In general, IC50 refers to the concentration that inhibits the measured activity by half. As for `COc1cc2nccc(Oc3ccc(NC(=O)C4(C(=O)Nc5ccc(F)cc5)CC4)c(OC)n3)c2nc1OC` [Compound 86, 1-N′-[6-[(6,7-Dimethoxy-1,5-naphthyridin-4-yl)oxy]-2-methoxypyridin-3-yl]-1-N-(4-fluorophenyl)cyclopropane-1,1-dicarboxamide], the concentration for half-maximal inhibition (IC50) is 10 to 100 nM in test [1], 10 to 100 nM in test [2], over 300 nM in test [3] and 100 to 300 nM in test [4].

For the molecule `CCNC(=O)c1cc2c(Oc3ncc(NC(=O)C4(C(=O)Nc5ccc(F)cc5)CC4)cc3Cl)ccnc2cc1OC` [Compound 20, 1-N′-[5-Chloro-6-[6-(ethylcarbamoyl)-7-methoxyquinolin-4-yl]oxypyridin-3-yl]-1-N-(4-fluorophenyl)cyclopropane-1,1-dicarboxamide], the IC50 in test [1] is 10 to 100 nM; in test [2], 10 to 100 nM; in test [3], over 300 nM; in test [4], 10 to 100 nM.

In the case of `CCNC(=O)c1cc2c(Oc3ncc(NC(=O)C4(C(=O)Nc5ccc(F)cc5)CC4)cc3F)ccnc2cc1OC` [Compound 23, 1-N′-[6-[6-(Ethylcarbamoyl)-7-methoxyquinolin-4-yl]oxy-5-fluoropyridin-3-yl]-1-N-(4-fluorophenyl)cyclopropane-1,1-dicarboxamide], the IC50 in test [1] was 10 to 100 nM; in test [2] it was 10 to 100 nM; in test [3], over 300 nM; in test [4], 10 to 100 nM.

For the molecule `CNC(=O)c1cc2c(Oc3ncc(NC(=O)C4(C(=O)Nc5ccc(F)cc5)CC4)cc3Cl)ccnc2cc1OCC(C)O` (centres unmarked) [Compound 50, 1-N′-[5-Chloro-6-[7-(2-hydroxypropoxy)-6-(methylcarbamoyl)-quinolin-4-yl]oxypyridin-3-yl]-1-N-(4-fluorophenyl)cyclopropane-1,1-dicarboxamide], the 50% inhibitory concentration (IC50) in test [1] is 10 to 100 nM; in test [2], 10 to 100 nM; in test [3], over 300 nM; in test [4] it was 10 to 100 nM.

On to `COc1cc2nccc(Oc3ncc(NC(=O)C4(C(=O)Nc5ccc(F)cc5)CC4)cc3F)c2cc1C(N)=O` [Compound 21, 1-N′-[6-(6-Carbamoyl-7-methoxyquinolin-4-yl)oxy-5-fluoropyridin-3-yl]-1-N-(4-fluorophenyl)cyclopropane-1,1-dicarboxamide], for which the IC50 in test [1] is 10 to 100 nM; in test [2] it was at most 10 nM; in test [3], over 300 nM; in test [4], 10 to 100 nM.

With `COc1cc2nccc(Oc3ncc(NC(=O)C4(C(=O)Nc5ccc(F)cc5)CC4)cc3Cl)c2cc1-c1ncc[nH]1` [Compound 71, 1-N′-[5-Chloro-6-[6-(1H-imidazol-2-yl)-7-methoxyquinolin-4-yl]oxypyridin-3-yl]-1-N-(4-fluorophenyl)cyclopropane-1,1-dicarboxamide], the IC50 is 10 to 100 nM in test [1], 10 to 100 nM in test [2], over 300 nM in test [3] and 10 to 100 nM in test [4].

`CC(O)COc1cc2nccc(Oc3ncc(NC(=O)C4(C(=O)Nc5ccc(F)cc5)CC4)cc3Cl)c2cc1C(N)=O` (centres unmarked) [Compound 51, 1-N′-[6-[6-Carbamoyl-7-(2-hydroxypropoxy)quinolin-4-yl]oxy-5-chloropyridin-3-yl]-1-N-(4-fluorophenyl)cyclopropane-1,1-dicarboxamide]: the IC50 in test [1] was 10 to 100 nM; in test [2], 10 to 100 nM; in test [3], over 300 nM; in test [4], 10 to 100 nM.

As to `COc1cc2nccc(Oc3ncc(NC(=O)C4(C(=O)Nc5ccc(F)cc5)CC4)cc3Cl)c2cc1-c1nnco1` [Compound 68, 1-N′-[5-Chloro-6-[7-methoxy-6-(1,3,4-oxadiazol-2-yl)quinolin-4-yl]oxypyridin-3-yl]-1-N-(4-fluorophenyl)cyclopropane-1,1-dicarboxamide], the half-maximal inhibitory concentration (IC50) is 10 to 100 nM in test [1], 10 to 100 nM in test [2], over 300 nM in test [3] and 10 to 100 nM in test [4].
